Assay [1] deals with T1, potassium ion channel hERG (human Ether-á-go-go-Related Gene) (Homo sapiens, UniProt Q12809).
T1 construct: expressed in transfected cells; host or cells: Chinese hamster ovary K1 (CHO)
Put plainly: Assay 5 - hERG assay (SyncroPatch 384PE patch clamp, CHO cells). Type of assay: cell-based. The settings on record: geometric mean; CHO cells over-expressing hERG; read-out: Assay 5 (hERG Hu CHO IF EPh CR-Syncro) GMean IC50. A digest of the protocol: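 Automated high-throughput patch clamp on CHO-K1 cells overexpressing hERG at room temperature, KF/KCl internal with escin, NMDG-containing external at pH 7.4. Six-point cumulative compound addition, 0.33% DMSO final; wells kept only with seal >30 MΩ, Z′ >0.4 and current >0.2 nA.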
Background: Block of hERG is tested as a sign of cardiac risk.

Another assay deals with T2, human PCSK9 (Homo sapiens, UniProt Q8NBP7).
T2 construct: biotinylated human PCSK9 (31-692)-Avi-His6; His6 (C)
Description: Assay 2 - Biophysical human PCSK9 assay (SPR, Biacore). The settings on record: geometric mean; SPR at 30° C; read-out: Assay 2 (PCSK9 BIAcore DBA CR) GMean Kd. The assay is classed as binding. The protocol:
Assay 2—Biophysical Human PCSK9 Assay
The SPR binding experiments were performed on a Biacore S200 optical biosensor unit at 30° C. A Series S Sensor Chip SA that is designed to bind biotinylated molecules for interaction analysis in Biacore systems was equilibrated at room temperature prior to use. The running buffer for protein tethering and subsequent ligand binding experiments was 10 mM HEPES pH 7.4, 150 mM NaCl, 0.05% (v/v) Tween 20 pH 7.4.
For the surface tethering of PCSK9, biotinylated human PCSK9 (31-692)-Avi-His6 at a concentration of 0.5 mg/mL was used. Prior to the surface tethering, the surface was exposed to a solution of 50 mM NaOH, 500 mM NaCl via 3 consecutive injections of this solution with a contact time of 60 s and a flowrate of 10 μL min^−1 to remove non-conjugated streptavidin. The PCSK9 protein was diluted to a concentration of 20 μg/mL using running buffer and injected with a contact time of 180-300 s and a flowrate of 10 μL min^−1 over a single flow channel (typically flow channel 2 or flow channel 4) with the aim to achieve protein capture levels of >5000 response units (RU). Remaining biotin binding sites were blocked via 2 consecutive injections of a 10 μM D-biotin solution in running buffer with a contact time of 60 s and a flowrate of 10 μL min^−1 over all flow-channels. Flow-channels 1 and 3 typically served as a reference surface throughout the subsequent binding experiments.
The binding experiments were all performed at a flow rate of 30 PL min^−1 and by employing the method of single-cycle kinetics. This approach involves the sequential injection of a compound concentration series without regeneration steps. A contact time between 90-150 s was selected, which was followed by a 40 min dissociation phase to allow for a proper estimation of the dissociation rate constant. Test compounds were delivered in DMSO at a concentration of 10 mM and a digital dispenser HP D300 was used to set up the compound concentration series using 6 concentrations. The tested concentrations have been 30, 100, 300, 1000, 3000 and 10000 nM. Prior to injecting any compound, the surfaces were equilibrated by injecting running buffer over them in three separate pulses. The data collection rate was set to 10 Hz.
The raw sensorgrams of the compound injections were first subjected to reference subtraction (subtracting the signal from flow channel 1 and/or 3 from the signal from channels 2 and/or 4 respectively) and then blank subtraction (subtracting the signal from injecting DMSO controls from the reference subtracted data). The resulting double-referenced sensorgrams were then fitted using a 1:1 binding interaction model using the manufactures software package to extract kinetic- and affinity data. Active compounds have been defined by creating a detectable binding signal at the highest compound concentration ([…]) of 3 RUs. Kinetic- and affinity data on active compounds are only provided for those compounds where the binding signal at the highest compound concentration ([…]) is 50% of the theoretical maximum binding signal for a 1:1 binding interaction (Rmax, typically between 15-20 RUs) in order to enable a proper fitting of the data.
On the technique in general: SPR reads the build-up and loss of mass on a sensor chip optically.

17 compounds from patent US20240217951A1, “PCSK9 INHIBITORS AND METHODS OF USE THEREOF” (AstraZeneca AB, priority 2022, published 2024) can be followed below.

T1 sequence (Q12809 whole entry): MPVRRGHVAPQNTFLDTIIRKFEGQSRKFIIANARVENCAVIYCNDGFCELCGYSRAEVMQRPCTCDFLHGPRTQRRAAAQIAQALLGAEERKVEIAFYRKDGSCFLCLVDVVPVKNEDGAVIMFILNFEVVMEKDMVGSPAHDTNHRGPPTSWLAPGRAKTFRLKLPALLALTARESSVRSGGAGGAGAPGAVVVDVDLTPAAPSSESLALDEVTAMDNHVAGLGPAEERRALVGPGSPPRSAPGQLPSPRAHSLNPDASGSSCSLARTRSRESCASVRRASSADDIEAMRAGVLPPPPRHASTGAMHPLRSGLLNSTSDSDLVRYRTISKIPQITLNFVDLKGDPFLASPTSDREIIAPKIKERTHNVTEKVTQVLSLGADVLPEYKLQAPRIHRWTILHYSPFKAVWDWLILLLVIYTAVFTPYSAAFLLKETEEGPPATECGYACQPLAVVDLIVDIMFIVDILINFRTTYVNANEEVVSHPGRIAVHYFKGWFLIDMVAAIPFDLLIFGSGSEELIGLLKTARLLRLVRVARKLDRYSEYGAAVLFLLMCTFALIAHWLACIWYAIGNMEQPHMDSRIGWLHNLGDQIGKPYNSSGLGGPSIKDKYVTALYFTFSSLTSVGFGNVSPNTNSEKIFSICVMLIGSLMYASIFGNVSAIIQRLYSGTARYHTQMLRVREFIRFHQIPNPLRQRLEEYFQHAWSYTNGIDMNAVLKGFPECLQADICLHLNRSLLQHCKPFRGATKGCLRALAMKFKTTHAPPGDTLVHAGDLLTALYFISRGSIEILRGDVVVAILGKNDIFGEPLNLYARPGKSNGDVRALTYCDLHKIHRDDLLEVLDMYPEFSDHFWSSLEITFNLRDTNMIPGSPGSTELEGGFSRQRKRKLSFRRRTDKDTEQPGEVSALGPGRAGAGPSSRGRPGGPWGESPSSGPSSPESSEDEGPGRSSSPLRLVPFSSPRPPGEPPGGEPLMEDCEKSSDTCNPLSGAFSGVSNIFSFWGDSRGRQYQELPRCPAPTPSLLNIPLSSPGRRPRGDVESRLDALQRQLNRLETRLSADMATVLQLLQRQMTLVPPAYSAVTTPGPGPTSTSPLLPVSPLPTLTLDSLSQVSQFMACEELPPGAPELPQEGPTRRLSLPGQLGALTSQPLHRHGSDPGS
T2 sequence (Q8NBP7 31-692): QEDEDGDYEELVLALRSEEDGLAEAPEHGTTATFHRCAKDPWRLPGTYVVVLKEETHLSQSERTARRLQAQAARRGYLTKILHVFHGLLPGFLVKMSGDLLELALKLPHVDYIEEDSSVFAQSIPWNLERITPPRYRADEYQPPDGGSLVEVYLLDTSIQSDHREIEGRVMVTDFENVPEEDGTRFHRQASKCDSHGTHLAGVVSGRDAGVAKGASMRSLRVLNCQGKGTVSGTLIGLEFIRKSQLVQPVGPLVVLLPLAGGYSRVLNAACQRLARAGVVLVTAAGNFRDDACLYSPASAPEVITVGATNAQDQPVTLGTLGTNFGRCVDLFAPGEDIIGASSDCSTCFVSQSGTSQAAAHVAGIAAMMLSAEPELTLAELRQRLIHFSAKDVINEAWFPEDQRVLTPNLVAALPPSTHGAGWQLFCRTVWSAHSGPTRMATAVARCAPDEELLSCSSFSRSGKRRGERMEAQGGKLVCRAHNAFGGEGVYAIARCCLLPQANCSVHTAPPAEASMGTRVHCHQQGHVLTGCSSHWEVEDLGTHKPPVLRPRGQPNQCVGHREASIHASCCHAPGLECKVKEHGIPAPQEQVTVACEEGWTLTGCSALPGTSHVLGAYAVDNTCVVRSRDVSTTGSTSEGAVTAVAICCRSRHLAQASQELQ

Usually IC50 stands for the point on the concentration scale where inhibition reaches its midpoint. One may read the Kd as the concentration at which binding is half-saturated. For the compound `Cc1cccn(-c2ccc(N[C@H]3CC[C@H](Nc4cnc(Cl)cn4)C3)nc2)c1=O` [Example 24, 6′-(((1S,3S)-3-((5-Chloropyrazin-2-yl)amino)cyclopentyl)amino)-3-methyl-2H-[1,3′-bipyridin]-2-one], the IC50 in assay [1] was found to be 20500 nM. Moreover, the Kd at human PCSK9 is 4 nM.
The like results for `Cn1c(=O)n(-c2ccc(N[C@H]3CC[C@H](Nc4cnc(Cl)cn4)C3)nc2)c2ccccc21` [Example 27, 1-(6-(((1S,3S)-3-((5-Chloropyrazin-2-yl)amino)cyclopentyl)amino)pyridin-3-yl)-3-methyl-1,3-dihydro-2H-benzo[d]imidazol-2-one] were, in that order, 6350 nM and 3.1 nM.
The like results for `O=c1ccc(-c2ccc(F)cc2)cn1-c1ccc(N[C@H]2CC[C@H](Nc3cnc(Cl)cn3)C2)nc1` [Example 32, 6′-(((1S,3S)-3-((5-Chloropyrazin-2-yl)amino)cyclopentyl)amino)-5-(4-fluorophenyl)-2H-[1,3′-bipyridin]-2-one] were, in that order, 3500 nM and 20 nM.
Regarding `O=C(O)c1ccc(=O)n(-c2ccc(N[C@H]3CC[C@H](Nc4cnc(Cl)cn4)C3)nc2)c1` [Example 33, 6′-(((1S,3S)-3-((5-Chloropyrazin-2-yl)amino)cyclopentyl)amino)-2-oxo-2H-[1,3′-bipyridine]-5-carboxylic acid], the IC50 in assay [1] is greater than 40000 nM. In addition, at human PCSK9, the dissociation constant Kd amounted to 13 nM.
The like results for `O=c1ccc2ccccc2n1-c1ccc(N[C@H]2CC[C@H](Nc3cnc(Cl)cn3)C2)nc1` [Example 35, 1-(6-(((1S,3S)-3-((5-Chloropyrazin-2-yl)amino)cyclopentyl)amino)pyridin-3-yl)quinolin-2 (1H)-one] were, in that order, 4700 nM and 3 nM.
For `COc1cccn(-c2ccc(N[C@H]3CC[C@H](Nc4cnc(C)cn4)C3)nc2)c1=O` [Example 36, 3-Methoxy-6′-(((1S,3S)-3-((5-methylpyrazin-2-yl)amino)cyclopentyl)amino)-2H-[1,3′-bipyridin]-2-one] the same measures were greater than 40000 nM and 5.3 nM.
The like results for `Cc1cnc(N[C@H]2CC[C@H](Nc3ccc(-n4c(=O)ccc5cccnc54)cn3)C2)cn1` [Example 37, 1-(6-(((1S,3S)-3-((5-Methylpyrazin-2-yl)amino)cyclopentyl)amino)pyridin-3-yl)-1,8-naphthyridin-2(1 H)-one] were, in that order, greater than 40000 nM and 5.5 nM.
Turning to `Cc1cnc(N[C@H]2CC[C@H](Nc3ccc(-n4c(=O)n(C)c5cccnc54)cn3)C2)cn1` [Example 42, 1-Methyl-3-(6-(((1S,3S)-3-((5-methylpyrazin-2-yl)amino)cyclopentyl)amino)pyridin-3-yl)-1,3-dihydro-2H-imidazo[4,5-b]pyridin-2-one], the IC50 in assay [1] is greater than 40000 nM. The Kd at human PCSK9 is 5 nM.
As to `Cc1cnc(N[C@H]2CC[C@H](Nc3ccc(-n4cccc(C)c4=O)cn3)C2)cn1` [Example 44, 3-Methyl-6′-(((1S,3S)-3-((5-methylpyrazin-2-yl)amino)cyclopentyl)amino)-2H-[1,3′-bipyridin]-2-one], the IC50 in assay [1] is greater than 40000 nM. Moreover, the Kd on human PCSK9 stood at 4.5 nM.
For `Cc1cnc(N[C@H]2CC[C@H](Nc3ccc(-n4c(=O)n(C)c5ccccc54)cn3)C2)cn1` [Example 45, 1-Methyl-3-(6-(((1S,3S)-3-((5-methylpyrazin-2-yl)amino)cyclopentyl)amino)pyridin-3-yl)-1,3-dihydro-2H-benzo[d]imidazol-2-one] the same measures were 23100 nM and 1.5 nM.
`Cc1cnc(N[C@H]2CC[C@H](Nc3ccc(-n4c(=O)[nH]c5ccccc54)cn3)C2)cn1` [Example 46, 1-(6-(((1S,3S)-3-((5-Methylpyrazin-2-yl)amino)cyclopentyl)amino)pyridin-3-yl)-1,3-dihydro-2H-benzo[d]imidazol-2-one]: in assay [1], the IC50 amounted to 33000 nM. Further, on human PCSK9, the Kd is 4.7 nM.
As for `Cc1cnc(N[C@H]2CC[C@H](Nc3ccc(-n4cccc(Cl)c4=O)cn3)C2)cn1` [Example 47, 3-Chloro-6′-(((1S,3S)-3-((5-methylpyrazin-2-yl)amino)cyclopentyl)amino)-2H-[1,3′-bipyridin]-2-one], in assay [1], the IC50 is greater than 40000 nM. Moreover, the Kd at human PCSK9 was 1.9 nM.
The like results for `Cn1c(=O)n(-c2ccc(N[C@H]3CC[C@H](Nc4cnc(OC(F)F)cn4)C3)nc2)c2ccccc21` [Example 82, 1-(6-(((1S,3S)-3-((5-(Difluoromethoxy)pyrazin-2-yl)amino)cyclopentyl)amino)pyridin-3-yl)-3-methyl-1,3-dihydro-2H-benzo[d]imidazol-2-one] were, in that order, 5500 nM and 4.1 nM.
Consider `COc1cccn(-c2ccc(N[C@H]3CC[C@H](Nc4cnc(OC(F)F)cn4)C3)nc2)c1=O` [Example 94, 6′-(((1S,3S)-3-((5-(Difluoromethoxy)pyrazin-2-yl)amino)cyclopentyl)amino)-3-methoxy-2H-[1,3′-bipyridin]-2-one], for which, in assay [1], the IC50 worked out at 17500 nM. Further, on human PCSK9, the Kd was 12 nM.
Take `Cc1cnc(N[C@H]2CC[C@H](Nc3ccc(-n4cccc(C#N)c4=O)cn3)C2)cn1` [Example 103, 6′-(((1S,3S)-3-((5-Methylpyrazin-2-yl)amino)cyclopentyl)amino)-2-oxo-2H-[1,3′-bipyridine]-3-carbonitrile]: the IC50 in assay [1] was greater than 40100 nM. Besides, the Kd at human PCSK9 amounted to 4.7 nM.
With `COc1cccn(-c2ccc(N[C@H]3CC[C@H](Nc4cnc(C5CC5)cn4)C3)nc2)c1=O` [Example 106, 6′-(((1S,3S)-3-((5-Cyclopropylpyrazin-2-yl)amino)cyclopentyl)amino)-3-methoxy-2H-[1,3′-bipyridin]-2-one], in assay [1], the IC50 is greater than 40000 nM. Also, at human PCSK9, the Kd stood at 3 nM.
The like results for `COc1ccnn(-c2ccc(N[C@H]3CC[C@H](Nc4cnc(C)cn4)C3)nc2)c1=O` [Example 226, 4-Methoxy-2-(6-(((1S,3S)-3-((5-methylpyrazin-2-yl)amino)cyclopentyl)amino)pyridin-3-yl)pyridazin-3 (2H)-one] were, in that order, greater than 40100 nM and 5.6 nM.
